The text below walks through data of ChEMBL document CHEMBL4613277, “Improving the Potency of N-Aryl-2,5-dimethylpyrroles against Multidrug-Resistant and Intracellular Mycobacteria” (ACS Med Chem Lett, 2020).

Usually MIC stands for the lowest concentration found to suppress growth.

Converted amounts (≈) assume the structure as drawn.

The first assay relates to Mycobacterium tuberculosis. Kind of assay: Antimycobacterial activity against Mycobacterium bovis BCG. Format: functional. The note with it: variant bovis BCG.
With `Cc1ccc(C)c(-n2c(C)cc(CNC3CCCCC3)c2C)c1`, it took 0.5 µg/mL (≈ 1.61 µM) to inhibit growth (MIC).

Take `Cc1cc(CNC2CCCCC2)c(C)n1-c1ccc(Cl)cc1`: the MIC amounted to 0.4 µg/mL (≈ 1.26 µM).

In turn, `Cc1cc(CNCc2ccccc2)c(C)n1-c1ccccc1C(F)(F)F` displayed an MIC of 1 µg/mL (≈ 2.79 µM).

With `Cc1cc(CNCc2ccccc2)c(C)n1-c1ccc(C(C)C)cc1`, 1 µg/mL (≈ 3.01 µM) was the least that counted as inhibitory (MIC).

`Cc1cc(CNCc2ccccc2)c(C)n1-c1cc(Cl)cc(Cl)c1`: the minimum inhibitory concentration (MIC) amounted to 1 µg/mL (≈ 2.78 µM).

Regarding `Cc1cc(CNC2CCCCC2)c(C)n1-c1ccc(C(C)C)cc1`, the lowest concentration to inhibit growth (MIC) was 0.25 µg/mL (≈ 0.77 µM).

In turn, `COc1ccc(-n2c(C)cc(CNC3CCCCC3)c2C)cc1` gave an MIC of 0.25 µg/mL (≈ 0.8 µM).

As for `Cc1cc(CNCCNc2ccccc2)c(C)n1-c1ccc(Cl)cc1`, the MIC came to 1 µg/mL (≈ 2.83 µM).

`Cc1cc(CNC2CCCCC2)c(C)n1-c1ccc(C#N)cc1` gave an MIC of 1 µg/mL (≈ 3.25 µM).

In the case of `Cc1cc(CNC2CCCCC2)c(C)n1-c1ccccc1C(F)(F)F`, it took 2 µg/mL (≈ 5.71 µM) to inhibit growth (MIC).

`Cc1cc(CNC(C)c2ccccc2)c(C)n1-c1ccc(Cl)cc1` (stereo not given) returned an MIC of 0.5 µg/mL (≈ 1.48 µM).

In turn, `Cc1cc(CNCc2ccccc2)c(C)n1-c1ccc(Cl)cc1` showed an MIC of 0.5 µg/mL (≈ 1.54 µM).

In turn, `Cc1cc(CN[C@H]2C[C@@H]3CC[C@H]2C3)c(C)n1-c1ccc(Cl)cc1` yielded an MIC of 0.25 µg/mL (≈ 0.76 µM).

Turning to `Cc1cc(CNCc2ccccc2)c(C)n1-c1ccc(F)cc1`, the minimal inhibitory concentration (MIC) is 0.5 µg/mL (≈ 1.62 µM).

The compound `Cc1cc(CNC2CCCCC2)c(C)n1-c1ccc(F)cc1` displayed an MIC of 0.5 µg/mL (≈ 1.66 µM).

With `Cc1cc(CNC2CCCCC2)c(C)n1-c1cc(Cl)cc(Cl)c1`, the minimal inhibitory concentration (MIC) stood at 0.5 µg/mL (≈ 1.42 µM).

As to `Cc1cc(CNCC2CCCCC2)c(C)n1-c1ccc(Cl)cc1`, the lowest concentration to inhibit growth (MIC) was 0.125 µg/mL (≈ 0.378 µM).

In turn, `Cc1ccc(C)c(-n2c(C)cc(CNCc3ccccc3)c2C)c1` yielded an MIC of 2 µg/mL (≈ 6.28 µM).

Take `Cc1cc(CNC2CCCCC2)c(C)n1-c1ccccc1F`: 0.5 µg/mL (≈ 1.66 µM) was the least that counted as inhibitory (MIC).

Another assay relates to Mycobacterium tuberculosis. Kind of assay: Antimycobacterial activity against Mycobacterium bovis BCG assessed as reduction in bacterial growth incubated for 48 hrs by HT-SPOTi assay. It is filed as functional. The note with it: variant bovis BCG.
On to `Cc1cc(CNCC2CCCCC2)c(C)n1-c1ccc(Cl)cc1`, for which the MIC came to 1.95 µg/mL (≈ 5.89 µM).
